Experiments:
cGAS [1] = biological target: T1, cGAS (Homo sapiens, UniProt Q8N884); assay: In vitro inhibition assay of cGAS activity (cGAMP production, RapidFire mass spectrometry); assay type: biochemical; parameters: Insert cDNA encoding full-length of human cGAS; His6; made in house; host or cells: E. coli BL21(DE3); settings: 10 nM recombinant human cGAS, 60 nM 75-bp dsDNA, 50 μM ATP, 50 μM GTP, 3 hrs
Description: Expression and Purification of Recombinant cGAS Protein: Insert cDNA encoding full-length of human cGAS into a modified bacterial expression vector containing an in-frame His6-tag. Induce the E. coli strain BL21(DE3) harboring the plasmid with 1 mM IPTG (Isopropyl β-D-1-thiogalactopyranoside) at 18° C. overnight. Purify the His6-tagged cGAS protein over HISpur Ni-NTA resin in the presence of benzonase and RNase followed by Superdex 200 size exclusion chromatography with storage buffer (50 mM Tris-HCl pH 7.5, 300 mM NaCl, 1 mM DTT, 10% glycerol).
In vitro inhibition assay of cGAS activity: Add a 5 μL mixture containing 10 mM Tris-Cl pH 7.5, 50 mM NaCl, 5 mM MgCl2, 1 mM DTT, 0.01% Triton X-100, 60 nM 75-bp dsDNA, 50 μM ATP, 50 μM GTP, 10 nM of recombinant human cGAS, and serial dilutions of a test compound in DMSO to a 384-well plate and incubate at ambient temperature for 3 hrs. Quench the reaction by the addition of 100 μL of stop solution containing 0.1% formic acid and 0.1 μM internal standard (3′3′-difluoro cGAMP). Measure the amount of cGAMP produced by RapidFire 365 mass spectrometry and evaluate inhibitory effect of a compound by plotting percent specific inhibition of cGAMP production against log concentration of the test compound. Calculate IC50 values using a 4-parameter non-linear logistic equation (y=(S0+((Sinf−S0)/(1+((qAC50/x)^nHill))))).

cGAS [2] = biological target: T1, cGAS; assay: Cellular assay to measure cGAS activity (IFNb AlphaLISA in THP1 cells stimulated by RDG-Adenovirus-GFP); assay type: cell-based; parameters: host or cells: THP1 cells differentiated with PMA and stimulated with RDG-Adenovirus-GFP; settings: PMA-differentiated THP1 cells, RDG-Adenovirus-GFP at 1000 MOI; inhibition of IFNb production as marker for cGAS activity
Description: Cellular assay to measure cGAS activity: Use THP1 cell line from ATCC to determine inhibition of cGAS activity by test compounds in human cells. Plate cells on 96-well plates at 0.2×10^6/well and differentiate with phorbol myristate acetate (PMA) at 37° C./5% CO2. After 24 hours, replace PMA containing media with media lacking PMA and further incubate overnight. Stimulate cells were then by RDG-Adenovirus-GFP (Vector Biolabs #1768) at 1000 MOI for 4 hours prior to the addition of test compounds. After overnight incubation, transfer 10 μL of the media from each well to a new plate for IFNb analysis as a marker for cGAS activity. Measure quantification of IFNb with an IFNb AlphaLISA Detection kit (Perkin Elmer AL3133F) by mixing the acceptor beads with the cell supernatant followed by the addition of the biotinylated antibody and donor beads. Measure the relative fluorescence signal produced from the interaction of the donor and acceptor beads by a PHERAStar AlphaLISA protocol and evaluate the inhibitory effect of a compound by plotting specific inhibition of IFNb production against log concentration of the test compound. Calculate IC50 values using a 4-parameter non-linear logistic equation (y=(S0+((SInf−S0)/(1+((qAC50/x)^nHill))))).

T1 sequence (Q8N884 whole entry): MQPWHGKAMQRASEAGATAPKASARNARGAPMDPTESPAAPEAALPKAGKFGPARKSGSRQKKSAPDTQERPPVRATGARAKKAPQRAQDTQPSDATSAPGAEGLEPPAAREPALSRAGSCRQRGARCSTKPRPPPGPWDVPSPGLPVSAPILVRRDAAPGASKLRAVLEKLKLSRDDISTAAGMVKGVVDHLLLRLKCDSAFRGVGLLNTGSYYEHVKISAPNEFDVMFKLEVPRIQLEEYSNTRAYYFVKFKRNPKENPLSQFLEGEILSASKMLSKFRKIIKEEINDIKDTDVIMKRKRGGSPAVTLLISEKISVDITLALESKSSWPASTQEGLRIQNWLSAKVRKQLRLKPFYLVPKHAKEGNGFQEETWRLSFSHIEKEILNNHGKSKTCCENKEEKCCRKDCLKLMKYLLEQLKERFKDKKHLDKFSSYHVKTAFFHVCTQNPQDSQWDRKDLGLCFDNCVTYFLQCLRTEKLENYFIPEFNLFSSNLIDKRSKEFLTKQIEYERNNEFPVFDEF

SMILES: CCOc1cc(Cl)c(Cl)c2[nH]c3c(c12)[C@H](C)C(=O)NCC3 (single isomer, unassigned) [Example 15A]
- IC50 (cGAS [1]): 0.0224 µM
- IC50 (cGAS [2]): 0.793 µM

SMILES: CCOc1cc(Cl)c(Cl)c2[nH]c3c(c12)[C@H](C)C(=O)NCC3 (single isomer, unassigned) [Example 15B]
- IC50 (cGAS [1]): 1.09 µM
- IC50 (cGAS [2]): 8.14 µM

SMILES: C[C@@H]1C(=O)NCCc2[nH]c3c(Cl)c(Cl)cc(OCC#N)c3c21 (single isomer, unassigned) [Example 16A]
- IC50 (cGAS [1]): 0.00218 µM
- IC50 (cGAS [2]): 0.871 µM

SMILES: C[C@@H]1C(=O)NCCc2[nH]c3c(Cl)c(Cl)cc(OCC#N)c3c21 (single isomer, unassigned) [Example 16B]
- IC50 (cGAS [1]): 0.998 µM
- IC50 (cGAS [2]): 1.01 µM

SMILES: C[C@@H]1C(=O)NCCc2[nH]c3c(Cl)c(Cl)cc(OCC(N)=O)c3c21 (single isomer, unassigned) [Example 17A]
- IC50 (cGAS [1]): 0.0224 µM
- IC50 (cGAS [2]): 0.856 µM

SMILES: C[C@@H]1C(=O)NCCc2[nH]c3c(Cl)c(Cl)cc(OCC(N)=O)c3c21 (single isomer, unassigned) [Example 17B]
- IC50 (cGAS [1]): 1.54 µM
- IC50 (cGAS [2]): 4.08 µM

SMILES: CC[C@H]1C(=O)NCCc2[nH]c3c(Cl)c(Cl)cc(OCC#N)c3c21 (single isomer, unassigned) [Example 35]
- IC50 (cGAS [1]): 0.0438 µM
- IC50 (cGAS [2]): 3.69 µM

SMILES: CC[C@H]1C(=O)NCCc2[nH]c3c(Cl)c(Cl)cc(OCC#N)c3c21 (single isomer, unassigned) [Example 36]
- IC50 (cGAS [1]): 3.95 µM
- IC50 (cGAS [2]): 1.2 µM

SMILES: C[C@H]1C(=O)NCCc2[nH]c3c(Cl)c(Cl)cc(-c4cnn(C)n4)c3c21 (single isomer, unassigned) [Example 37]
- IC50 (cGAS [1]): 0.0304 µM
- IC50 (cGAS [2]): 0.802 µM

SMILES: COCC(=O)Nc1cc(Cl)c(Cl)c2[nH]c3c(c12)[C@@H](C)C(=O)NCC3 (single isomer, unassigned) [Example 40]
- IC50 (cGAS [1]): 0.0273 µM
- IC50 (cGAS [2]): 0.787 µM

SMILES: COCC(=O)Nc1cc(Cl)c(Cl)c2[nH]c3c(c12)[C@@H](C)C(=O)NCC3 (single isomer, unassigned) [Example 41]
- IC50 (cGAS [1]): 7.17 µM
- IC50 (cGAS [2]): > 10 µM

SMILES: C[C@H](O)C(=O)Nc1cc(Cl)c(Cl)c2[nH]c3c(c12)[C@@H](C)C(=O)NCC3 (single isomer, unassigned) [Example 42]
- IC50 (cGAS [1]): 6.44 µM
- IC50 (cGAS [2]): > 10 µM

SMILES: C[C@H](O)C(=O)Nc1cc(Cl)c(Cl)c2[nH]c3c(c12)[C@@H](C)C(=O)NCC3 (single isomer, unassigned) [Example 43]
- IC50 (cGAS [1]): 0.0149 µM
- IC50 (cGAS [2]): 0.498 µM

SMILES: COCCNc1cc(Cl)c(Cl)c2[nH]c3c(c12)[C@@H](C)C(=O)NCC3 (single isomer, unassigned) [Example 47]
- IC50 (cGAS [1]): 0.0201 µM
- IC50 (cGAS [2]): 0.596 µM

SMILES: COCCNc1cc(Cl)c(Cl)c2[nH]c3c(c12)[C@@H](C)C(=O)NCC3 (single isomer, unassigned) [Example 48]
- IC50 (cGAS [1]): 6.49 µM
- IC50 (cGAS [2]): > 10 µM

SMILES: CC1C(=O)NCCc2[nH]c3c(Cl)c(Cl)cc(NCCO)c3c21 (single isomer, unassigned) [Example 50, 7,8-Dichloro-10-((2-hydroxyethyl)amino)-1-methyl-3,4,5,6-tetrahydroazepino[4,5-b]indol-2(1H)-one]
- IC50 (cGAS [1]): 0.00962 µM
- IC50 (cGAS [2]): 0.286 µM

SMILES: CC1C(=O)NCCc2c1c1c(NCCO)cc(Cl)c(Cl)c1n2C (single isomer, unassigned) [Example 51, 7,8-Dichloro-10-((2-hydroxyethyl)amino)-1,6-dimethyl-3,4,5,6-tetrahydroazepino[4,5-b]indol-2(1H)-one]
- IC50 (cGAS [1]): 0.00834 µM
- IC50 (cGAS [2]): 1.34 µM

SMILES: C[C@H]1C(=O)NCCc2[nH]c3c(Cl)c(Cl)cc(NCCCO)c3c21 (single isomer, unassigned) [Example 53]
- IC50 (cGAS [1]): 0.0173 µM
- IC50 (cGAS [2]): 0.471 µM

SMILES: C[C@H]1C(=O)NCCc2[nH]c3c(Cl)c(Cl)cc(NCCCO)c3c21 (single isomer, unassigned) [Example 54]
- IC50 (cGAS [1]): 4.25 µM
- IC50 (cGAS [2]): 5.66 µM

SMILES: C[C@@H](O)CNc1cc(Cl)c(Cl)c2[nH]c3c(c12)[C@@H](C)C(=O)NCC3 (single isomer, unassigned) [Example 55]
- IC50 (cGAS [1]): 0.0465 µM
- IC50 (cGAS [2]): 1.92 µM

SMILES: C[C@@H](O)CNc1cc(Cl)c(Cl)c2[nH]c3c(c12)[C@@H](C)C(=O)NCC3 (single isomer, unassigned) [Example 56]
- IC50 (cGAS [1]): 3.56 µM
- IC50 (cGAS [2]): 6.23 µM

SMILES: C[C@@H]1C(=O)NCCc2[nH]c3c(Cl)c(Cl)cc(N[C@H]4CCOC4)c3c21 (single isomer, unassigned) [Example 62]
- IC50 (cGAS [1]): 0.0445 µM
- IC50 (cGAS [2]): 1.9 µM

SMILES: C[C@@H]1C(=O)NCCc2[nH]c3c(Cl)c(Cl)cc(N[C@H]4CCOC4)c3c21 (single isomer, unassigned) [Example 63]
- IC50 (cGAS [1]): 1.67 µM
- IC50 (cGAS [2]): > 10 µM

SMILES: C[C@H]1C(=O)NCCc2[nH]c3c(Cl)c(Cl)cc(N[C@@H]4CCOC4)c3c21 (single isomer, unassigned) [Example 64]
- IC50 (cGAS [1]): 0.0379 µM
- IC50 (cGAS [2]): 2.42 µM

SMILES: C[C@H]1C(=O)NCCc2[nH]c3c(Cl)c(Cl)cc(N[C@@H]4CCOC4)c3c21 (single isomer, unassigned) [Example 65]
- IC50 (cGAS [1]): 0.89 µM
- IC50 (cGAS [2]): ≥ 10 µM

SMILES: C[C@H]1C(=O)NCCc2[nH]c3c(Cl)c(Cl)cc(NCC(F)(F)CO)c3c21 (single isomer, unassigned) [Example 68, (R)-7,8-Dichloro-10-((2,2-difluoro-3-hydroxypropyl)amino)-1-methyl-3,4,5,6-tetrahydroazepino[4,5-b]indol-2(1H)-one or (S)-7,8-Dichloro-10-((2,2-difluoro-3-hydroxypropyl)amino)-1-methyl-3,4,5,6-tetrahydroazepino[4,5-b]indol-2(1H)-one]
- IC50 (cGAS [1]): 0.00844 µM
- IC50 (cGAS [2]): 0.49 µM

SMILES: C[C@H]1C(=O)NCCc2[nH]c3c(Cl)c(Cl)cc(NCC(F)(F)CO)c3c21 (single isomer, unassigned) [Example 69, (R)-7,8-Dichloro-10-((2,2-difluoro-3-hydroxypropyl)amino)-1-methyl-3,4,5,6-tetrahydroazepino[4,5-b]indol-2(1H)-one or (S)-7,8-Dichloro-10-((2,2-difluoro-3-hydroxypropyl)amino)-1-methyl-3,4,5,6-tetrahydroazepino[4,5-b]indol-2(1H)-one]
- IC50 (cGAS [1]): 0.63 µM
- IC50 (cGAS [2]): > 10 µM

SMILES: C[C@@H]1C(=O)NCCc2[nH]c3c(Cl)c(Cl)cc(OCC(F)(F)CO)c3c21 (single isomer, unassigned) [Example 73]
- IC50 (cGAS [1]): 0.0112 µM
- IC50 (cGAS [2]): 0.755 µM

SMILES: C[C@@H]1C(=O)NCCc2[nH]c3c(Cl)c(Cl)cc(OCC(F)(F)CO)c3c21 (single isomer, unassigned) [Example 74]
- IC50 (cGAS [1]): 3.44 µM
- IC50 (cGAS [2]): > 10 µM

SMILES: COCCOc1cc(Cl)c(Cl)c2[nH]c3c(c12)[C@H](C)C(=O)NCC3 (single isomer, unassigned) [Example 80]
- IC50 (cGAS [1]): 0.00812 µM
- IC50 (cGAS [2]): 0.28 µM

SMILES: COCCOc1cc(Cl)c(Cl)c2[nH]c3c(c12)[C@H](C)C(=O)NCC3 (single isomer, unassigned) [Example 81]
- IC50 (cGAS [1]): 1.2 µM
- IC50 (cGAS [2]): 7.06 µM

SMILES: C[C@@H]1C(=O)NCCc2[nH]c3c(Cl)c(Cl)cc(OC[C@@H](C)O)c3c21 (single isomer, unassigned) [Example 82]
- IC50 (cGAS [1]): 0.0325 µM
- IC50 (cGAS [2]): 0.91 µM

SMILES: C[C@@H]1C(=O)NCCc2[nH]c3c(Cl)c(Cl)cc(OC[C@@H](C)O)c3c21 (single isomer, unassigned) [Example 83]
- IC50 (cGAS [1]): 4.74 µM
- IC50 (cGAS [2]): > 10 µM

SMILES: C[C@H](O)COc1cc(Cl)c(Cl)c2[nH]c3c(c12)[C@H](C)C(=O)NCC3 (single isomer, unassigned) [Example 84]
- IC50 (cGAS [1]): 0.0442 µM
- IC50 (cGAS [2]): 1.43 µM

SMILES: C[C@H](O)COc1cc(Cl)c(Cl)c2[nH]c3c(c12)[C@H](C)C(=O)NCC3 (single isomer, unassigned) [Example 85]
- IC50 (cGAS [1]): 2.77 µM
- IC50 (cGAS [2]): 7.26 µM

SMILES: C[C@H]1C(=O)NCCc2[nH]c3c(Cl)c(Cl)cc(CC#N)c3c21 (single isomer, unassigned) [Example 89]
- IC50 (cGAS [1]): 0.02 µM
- IC50 (cGAS [2]): 1.13 µM
